This passage reports IC50 results from patent US10800785B2, “Substituted pyrrolo[2,3-d]pyridazin-4-ones and pyrazolo[3,4-d]pyridazin-4-ones as protein kinase inhibitors” (Shanghai Fochon Pharmaceutical Co., Ltd., priority 2016, dated 2020).

The subject of this assay is DOHH2 cells. Kind of assay: Cell proliferation assay (MTS) in DOHH2 cells, mechanism-based assay for BTK inhibition. The following applies: Homo sapiens, DOHH-2, 120 h incubation, 5000 cells/well. From the text:
Cell Proliferation Assays
MTS testing kit was purchased from Promega. The DMEM, Fetal bovine serum and Penicillin-Streptomycin were purchased from Gibco. Dimethyl sulfoxide (DMSO) was purchased from Sigma.
To investigate whether a compound is able to inhibit the activity of BTK in cells, a mechanism-based assay using DOHH2 (DSMZ catalog#: ACC47) and Mino (ATCC® Number CRL-3000™) cells was developed. In this assay, inhibition of BTK was detected by the inhibition of DOHH2 and Mino cell proliferations. DOHH2 or Mino cells were cultured in culture flasks to 40-80% confluence in RPMI-1640 plus 10% fetal bovine serum. C ells were collected and plated onto 96-well plates at desired cell density (DOHH2: 5000 cells/well; Mino: 10000 cells/well). Plates were incubated overnight at 37° C., with 5% CO2 to adhere. Compounds were added to the plates, and the final compound concentrations were 10000, 3333, 1111, […], 41, 14, 4.6 and 1.5 nM. Plates were placed at 37° C., with 5% CO2 for 120 h (DOHH2) or 72 h (Mino). 20 μl MTS/100 μl medium mixture solution were added to each well and the plates were incubated for exactly 2 hours. The reaction was stopped by adding 25 μl 10% SDS per well.
Select compounds prepared as described above were assayed according to the biological procedures described herein.

One may read the IC50 as the point on the concentration scale where inhibition reaches its midpoint.

Consider `C=CC(=O)N1CC[C@@H](c2cn(-c3ccc(Oc4c(F)cccc4F)cc3)c3c(N)n[nH]c(=O)c23)C1` [Example 21], for which the IC50 was determined as 100 nM.
The same measure for `CN(C)C/C=C/C(=O)N1CCC[C@@H](c2cn(-c3ccc(Oc4ccccc4F)cc3)c3c(N)n[nH]c(=O)c23)C1` [Example 104, (S,E)-7-amino-3-(1-(4-(dimethylamino)but-2-enoyl)piperidin-3-yl)-1-(4-(2-fluorophenoxy)phenyl)-1,5-dihydro-4H-pyrrolo[2,3-d]pyridazin-4-one]: 151 nM; for `C=CC(=O)N1CC[C@@H](c2nn(-c3ccc(Oc4cc(F)cc(F)c4)cc3)c3c(N)n[nH]c(=O)c23)C1` [Example 46, (R)-3-(1-acryloylpyrrolidin-3-yl)-7-amino-1-(4-(3,5-difluorophenoxy)phenyl)-1,5-dihydro-4H-pyrazolo[3,4-d]pyridazin-4-one]: 59 nM.
The same measure for `C=CC(=O)N1CC[C@H](c2nn(-c3ccc(Oc4cccc(F)c4F)cc3)c3c(N)n[nH]c(=O)c23)C1` [Example 50, (S)-3-(1-acryloylpyrrolidin-3-yl)-7-amino-1-(4-(2,3-difluorophenoxy)phenyl)-1,5-dihydro-4H-pyrazolo[3,4-d]pyridazin-4-one]: 678 nM; for `C=CC(=O)N1CCC[C@@H](c2cn(-c3ccc(Oc4ccccc4F)cc3)c3c(N)n[nH]c(=O)c23)C1` [Example 29, (S)-3-(1-acryloylpiperidin-3-yl)-7-amino-1-(4-(2-fluorophenoxy)phenyl)-1,5-dihydro-4H-pyrrolo [2,3-d]pyridazin-4-one]: 46 nM.
The same measure for `C=CC(=O)N1CCC[C@H](c2cn(-c3ccc(Oc4cccc(F)c4F)cc3)c3c(N)n[nH]c(=O)c23)C1` [Example 38, (R)-3-(1-acryloylpiperidin-3-yl)-7-amino-1-(4-(2,3-difluorophenoxy)phenyl)-1,5-dihydro-4H-pyrrolo[2,3-d]pyridazin-4-one]: 175 nM.
On to `CN(C)C/C=C/C(=O)N1CCC[C@@H](c2cn(-c3ccc(Oc4ccccc4)cc3)c3c(N)n[nH]c(=O)c23)C1` [Example 103, (S,E)-7-amino-3-(1-(4-(dimethylamino)but-2-enoyl)piperidin-3-yl)-1-(4-phenoxyphenyl)-1,5-dihydro-4H-pyrrolo[2,3-d]pyridazin-4-one], for which inhibition was half-maximal at 97 nM (IC50).
The same measure for `C=CC(=O)N1CC[C@@H](c2nn(-c3ccc(Oc4cccc(F)c4F)cc3)c3c(N)n[nH]c(=O)c23)C1` [Example 44, (R)-3-(1-acryloylpyrrolidin-3-yl)-7-amino-1-(4-(2,3-difluorophenoxy)phenyl)-1,5-dihydro-4H-pyrazolo[3,4-d]pyridazin-4-one]: 113 nM.
Under `CC#CC(=O)N1CC[C@@H](c2cn(-c3ccc(Oc4ccccc4F)cc3)c3c(N)n[nH]c(=O)c23)C1` [Example 75, (S)-7-amino-3-(1-(but-2-ynoyl)pyrrolidin-3-yl)-1-(4-(2-fluorophenoxy)phenyl)-1,5-dihydro-4H-pyrrolo[2,3-d]pyridazin-4-one] stands 383 nM.
The same measure for `C=CC(=O)N1CC[C@H](c2nn(-c3ccc(Oc4c(F)cccc4F)cc3)c3c(N)n[nH]c(=O)c23)C1` [Example 51, (S)-3-(1-acryloylpyrrolidin-3-yl)-7-amino-1-(4-(2,6-difluorophenoxy)phenyl)-1,5-dihydro-4H-pyrazolo[3,4-d]pyridazin-4-one]: 215 nM; for `C=CC(=O)N1CCC[C@@H](c2cn(-c3ccc(Oc4cccc(F)c4F)cc3)c3c(N)n[nH]c(=O)c23)C1` [Example 32, (S)-3-(1-acryloylpiperidin-3-yl)-7-amino-1-(4-(2,3-difluorophenoxy)phenyl)-1,5-dihydro-4H-pyrrolo[2,3-d]pyridazin-4-one]: 58 nM.
`COC/C=C/C(=O)N1CCC[C@@H](c2cn(-c3ccc(Oc4ccccc4)cc3)c3c(N)n[nH]c(=O)c23)C1` [Example 101, (S,E)-7-amino-3-(1-(4-methoxybut-2-enoyl)piperidin-3-yl)-1-(4-phenoxyphenyl)-1,5-dihydro-4H-pyrrolo[2,3-d]pyridazin-4-one] gave an IC50 of 208 nM.
For `C=CC(=O)N1CCC[C@H](c2cn(-c3ccc(Oc4cc(F)cc(F)c4)cc3)c3c(N)n[nH]c(=O)c23)C1` [Example 40, (R)-3-(1-acryloylpiperidin-3-yl)-7-amino-1-(4-(3,5-difluorophenoxy)phenyl)-1,5-dihydro-4H-pyrrolo[2,3-d]pyridazin-4-one], the midpoint of inhibition, the IC50, lay at 375 nM. This IC50 is about 1.8-fold higher than that of the molecule before.
In turn, `C=CC(=O)N1CCC(c2cn(-c3ccc(Oc4ccccc4F)cc3)c3c(N)n[nH]c(=O)c23)CC1` [Example 113, 3-(1-acryloylpiperidin-4-yl)-7-amino-1-(4-(2-fluorophenoxy)phenyl)-1,5-dihydro-4H-pyrrolo[2,3-d]pyridazin-4-one] yielded a concentration for half-maximal inhibition (IC50) of 161 nM.
Under `C=CC(=O)N1CCC[C@@H](c2cn(-c3ccc(Oc4cc(F)cc(F)c4)cc3)c3c(N)n[nH]c(=O)c23)C1` [Example 34, (S)-3-(1-acryloylpiperidin-3-yl)-7-amino-1-(4-(3,5-difluorophenoxy)phenyl)-1,5-dihydro-4H-pyrrolo[2,3-d]pyridazin-4-one] stands 42 nM; under `C=CC(=O)N1CCC[C@@H](c2nn(-c3ccc(Oc4cc(F)cc(F)c4)cc3)c3c(N)n[nH]c(=O)c23)C1` [Example 58, (R)-3-(1-acryloylpiperidin-3-yl)-7-amino-1-(4-(3,5-difluorophenoxy)phenyl)-1,5-dihydro-4H-pyrazolo[3,4-d]pyridazin-4-one], 224 nM; under `CN(C)C/C=C/C(=O)N1CC[C@@H](c2cn(-c3ccc(Oc4ccccc4)cc3)c3c(N)n[nH]c(=O)c23)C1` [Example 93, (S,E)-7-amino-3-(1-(4-(dimethylamino)but-2-enoyl)pyrrolidin-3-yl)-1-(4-phenoxyphenyl)-1,5-dihydro-4H-pyrrolo[2,3-d]pyridazin-4-one], 239 nM.
Under `C=CC(=O)N1CC[C@H](c2cn(-c3ccc(Oc4ccccc4)cc3)c3c(N)n[nH]c(=O)c23)C1` [Example 10, (R)-3-(1-acryloylpyrrolidin-3-yl)-7-amino-1-(4-phenoxyphenyl)-1,5-dihydro-4H-pyrrolo[2,3-d]pyridazin-4-one] stands 20 nM; under `C=CC(=O)N1CCC[C@@H](c2nn(-c3ccc(Oc4c(F)cccc4F)cc3)c3c(N)n[nH]c(=O)c23)C1` [Example 57, (R)-3-(1-acryloylpiperidin-3-yl)-7-amino-1-(4-(2,6-difluorophenoxy)phenyl)-1,5-dihydro-4H-pyrazolo[3,4-d]pyridazin-4-one], 76 nM.
The same measure for `CC#CC(=O)N1CCC[C@@H](c2cn(-c3ccc(Oc4ccccc4)cc3)c3c(N)n[nH]c(=O)c23)C1` [Example 71, (S)-7-amino-3-(1-(but-2-ynoyl)piperidin-3-yl)-1-(4-phenoxyphenyl)-1,5-dihydro-4H-pyrrolo[2,3-d]pyridazin-4-one]: 228 nM.
For the molecule `C=CC(=O)N1CCC[C@@H](c2nn(-c3ccc(Oc4ccccc4F)cc3)c3c(N)n[nH]c(=O)c23)C1` [Example 53, (R)-3-(1-acryloylpiperidin-3-yl)-7-amino-1-(4-(2-fluorophenoxy)phenyl)-1,5-dihydro-4H-pyrazolo[3,4-d]pyridazin-4-one], half-maximal inhibition (IC50) was put at 196 nM.
Molecule `C=CC(=O)N1CC[C@H](c2nn(-c3ccc(Oc4ccccc4)cc3)c3c(N)n[nH]c(=O)c23)C1` [Example 14, (S)-3-(1-acryloylpyrrolidin-3-yl)-7-amino-1-(4-phenoxyphenyl)-1,5-dihydro-4H-pyrazolo[3,4-d]pyridazin-4-one] displayed an IC50 of 50 nM. This IC50 is about 3.9-fold lower than that of the molecule before.
`C=CC(=O)N1CCC[C@@H](c2nn(-c3ccc(Oc4ccccc4)cc3)c3c(N)n[nH]c(=O)c23)C1` [Example 15, (R)-3-(1-acryloylpiperidin-3-yl)-7-amino-1-(4-phenoxyphenyl)-1,5-dihydro-4H-pyrazolo[3,4-d]pyridazin-4-one] showed a half-maximal inhibitory concentration (IC50) of 40 nM.
For the molecule `C=CC(=O)N1CCC[C@H](c2cn(-c3ccc(Oc4ccccc4F)cc3)c3c(N)n[nH]c(=O)c23)C1` [Example 35, (R)-3-(1-acryloylpiperidin-3-yl)-7-amino-1-(4-(2-fluorophenoxy)phenyl)-1,5-dihydro-4H-pyrrolo [2,3-d]pyridazin-4-one], the half-inhibitory concentration (IC50) is 33 nM.
The same measure for `CC#CC(=O)N1CCC(c2cn(-c3ccc(Oc4ccccc4)cc3)c3c(N)n[nH]c(=O)c23)C1` (stereo not drawn) [Example 2, 7-amino-3-(1-(but-2-ynoyl)pyrrolidin-3-yl)-1-(4-phenoxyphenyl)-1,5-dihydro-4H-pyrrolo[2,3-d]pyridazin-4-one]: 244 nM.
For the molecule `C=CC(=O)N1CC[C@H](c2cn(-c3ccc(Oc4cccc(F)c4F)cc3)c3c(N)n[nH]c(=O)c23)C1` [Example 26, (R)-3-(1-acryloylpyrrolidin-3-yl)-7-amino-1-(4-(2,3-difluorophenoxy)phenyl)-1,5-dihydro-4H-pyrrolo[2,3-d]pyridazin-4-one], the IC50 is 260 nM. The IC50 values of the last two molecules are within 1.5-fold of each other.
As for `C=CC(=O)N1CCC[C@H](c2cn(-c3ccc(Oc4ccccc4)cc3)c3c(N)n[nH]c(=O)c23)C1` [Example 12, (R)-3-(1-acryloylpiperidin-3-yl)-7-amino-1-(4-phenoxyphenyl)-1,5-dihydro-4H-pyrrolo[2,3-d]pyridazin-4-one], 74 nM corresponded to half-maximal inhibition (IC50).
